Reference: US6696492B1, “Use of L carnitine and its alkanoyl dervatives for the preparation of a medicament useful for the treatment of patients suffering from diabetic and/or dysmetabolic nephropathy” (Sigma-Tau Industrie Farmaceutiche Riunite S.p.A., priority 1999, dated 2004)

Experiments:
[1] = Clinical pilot study, type 2 diabetes mellitus and diabetic nephropathy in the microalbuminuria stage; type: in vivo, human; conditions: after 6 months' treatment, 1.5 grams/day oral; before treatment 37.8±4.6; p<0.01; 8 patients
Experimental: (§1) Lastly, a clinical pilot study has been conducted in a small patient sample, consisting of 8 patients suffering from type 2 diabetes mellitus and diabetic nephropathy in the microalbuminuria stage without evidence of frank renal insufficiency and 10 patients suffering from type 2 diabetes mellitus and renal insufficiency (serum creatinine>2 mg/dl and creatinine clearance <40 ml/min).
(§2) Both patient groups were treated with 1.5 grams/day of PLC administered in three distinct doses of 500 mg at three different times of day (1 tablet after breakfast, lunch and dinner) for a total period of 6 months.

[2] = Tolerability in patients with diabetes mellitus and peripheral arteriopathy; type: in vivo, human; conditions: 6 months' treatment
[3] = Clinical physiology study: forearm blood flow by plethysmography, intravenous infusion of PLC; type: in vivo, human; conditions: 6 healthy volunteers, after 60-minute intravenous infusion at 12 micrograms per minute
Experimental: A clinical physiology study was conducted in human subjects for the purpose of establishing whether PLC was also capable of exerting a vasodilating action at the microcirculatory level. […] This study was conducted in 6 healthy volunteers, whose overall blood flow was measured by plethysmography in the forearm, both in basal conditions and after 60-minute intravenous infusion of PLC at the dose of 12 micrograms per minute. The choice of dose to be administered was based on kinetics calculations, in order to try and achieve a steady state plasma concentration of PLC similar to the one obtained with chronic oral administration of 2 grams of PLC.

[4] = organ ischaemia and reperfusion; cited from earlier work
[5] = cited from earlier work
[6] = Clinical study: forearm blood flow by plethysmography, local intra-arterial PLC, then nitro-L-arginine; type: in vivo, human; conditions: 8 healthy volunteers, local intra-arterial administration
[7] = Clinical pilot study, type 2 diabetes mellitus and renal insufficiency; type: in vivo, human; conditions: after 6 months' treatment, 1.5 grams/day oral
Experimental: as §1, §2

[8] = renally insufficient children; cited from earlier work

Structure (SMILES) | urinary microalbumin excretion rate [1] | side effects in man [2] | increase in blood flow as compared to resting basal flow [3] | damage induced by the ischaemia [4] | functional capability and perfusion of the peripheral nerves ([5]; streptozocin-diabetic rats (Hotta et al. 1996)) | plasma lipid levels (total cholesterol, triglycerides, LDL) ([5]; streptozocin-diabetic rats) | vasodilatory action [6] | 24-h proteinuria ([7]; before treatment 6.2±2.3, p<0.01, 10 patients) | creatinine clearance ([7]; before treatment 34.6±4.6, spread ±7.3) | LDL ([7]; before treatment 169±15) | triglycerides ([7]; before treatment 217±75 mg/dl) | serum triglyceride levels [8]
CCC(=O)O[C@H](CC(=O)[O-])C[N+](C)(C)C [PLC, propionyl L-carnitine] | 21.3±5.1 mg/g creatinine | no severe unwanted effects | approximately 25% | capable of reducing the damage induced by the ischaemia | capable of improving | reduced | confirmed the vasodilatory action | 3.1±1.2 g/24 h | 42.7 mL/min | 158 ± 10 mg/dL | 192±62 m/dl | 
C[N+](C)(C)C[C@H](O)CC(=O)[O-] [L-carnitine] |  |  |  |  |  |  |  |  |  |  |  | reduces the serum triglyceride levels
